{"source": "patent US20240197725A1", "about": "“METHOD AND COMPOSITION FOR THE PREVENTION OR TREATMENT OF OSTEOARTHRITIS” (Rhode Island Hospital, priority 2021, published 2024)", "key": {"SHP2 [1]": {"target": "T1, SHP2 (Homo sapiens, UniProt Q06124)", "T1 sequence (Q06124 whole entry)": "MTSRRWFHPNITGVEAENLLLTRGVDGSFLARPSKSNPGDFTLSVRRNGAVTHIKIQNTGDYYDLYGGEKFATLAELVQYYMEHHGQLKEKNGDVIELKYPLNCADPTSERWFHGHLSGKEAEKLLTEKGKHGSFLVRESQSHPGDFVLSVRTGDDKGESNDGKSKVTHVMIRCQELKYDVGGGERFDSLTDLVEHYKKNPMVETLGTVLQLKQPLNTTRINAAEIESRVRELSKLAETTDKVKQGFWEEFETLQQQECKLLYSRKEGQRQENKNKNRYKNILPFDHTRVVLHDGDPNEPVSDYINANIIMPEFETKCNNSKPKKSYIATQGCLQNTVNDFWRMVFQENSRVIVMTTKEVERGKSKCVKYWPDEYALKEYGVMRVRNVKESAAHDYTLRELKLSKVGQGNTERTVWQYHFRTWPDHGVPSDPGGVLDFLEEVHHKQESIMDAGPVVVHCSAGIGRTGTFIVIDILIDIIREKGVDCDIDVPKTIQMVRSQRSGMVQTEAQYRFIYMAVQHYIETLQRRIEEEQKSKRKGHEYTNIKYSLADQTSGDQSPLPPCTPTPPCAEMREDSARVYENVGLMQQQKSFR", "conditions": "read-out: SHP2 IC50; cited from earlier work"}, "SHP2 [2]": {"target": "T2, SHP2 (Mus musculus, UniProt P35235)", "T2 construct": "endogenous in cells; host or cells: Prg4+ murine articular cartilage (AC) cells", "T2 sequence (P35235 whole entry)": "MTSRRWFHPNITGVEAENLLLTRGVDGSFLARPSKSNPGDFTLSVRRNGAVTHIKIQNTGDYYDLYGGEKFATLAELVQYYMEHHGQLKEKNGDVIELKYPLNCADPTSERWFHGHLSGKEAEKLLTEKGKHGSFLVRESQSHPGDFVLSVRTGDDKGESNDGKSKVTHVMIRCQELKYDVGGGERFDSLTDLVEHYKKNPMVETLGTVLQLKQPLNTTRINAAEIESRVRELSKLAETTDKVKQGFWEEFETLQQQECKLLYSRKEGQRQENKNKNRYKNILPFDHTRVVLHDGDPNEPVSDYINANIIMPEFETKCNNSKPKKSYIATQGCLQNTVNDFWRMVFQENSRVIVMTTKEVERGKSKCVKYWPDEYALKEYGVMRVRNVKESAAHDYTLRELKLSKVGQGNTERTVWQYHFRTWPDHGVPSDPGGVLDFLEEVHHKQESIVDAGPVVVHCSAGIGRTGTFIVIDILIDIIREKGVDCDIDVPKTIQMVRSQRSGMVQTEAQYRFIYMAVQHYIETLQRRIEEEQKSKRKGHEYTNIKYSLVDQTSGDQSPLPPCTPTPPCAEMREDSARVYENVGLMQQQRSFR", "assay": "SHP2 degradation in Prg4+ articular cartilage cells (Western blot)", "type": "cell-based, murine", "conditions": "chondrocytes, a week after withdrawal"}, "[3]": {"system": "murine articular cartilage cells", "assay": "Cell viability (WST1) of articular cartilage cells", "type": "cell-based", "conditions": "concentrations as high as 1 μM, 48 hrs, WST1, n=3", "description": "With respect to toxicity, murine articular cartilage cells were treated with indicated concentration of SHP2D26 for 48 hrs. Cell viabilities were measured using WST1 (n=3)."}, "SHP2 [4]": {"target": "T1, SHP2", "parameters": "host or cells: esophageal cancer cells (endogenous SHP2)", "conditions": "cited from earlier work"}}, "note": "Where two headings read alike, the source gives them in different places.", "data": [{"molecule": "C[C@@H]1OCC2(CCN(c3nc4[nH]nc(-c5ccnc(NC6CC6)c5Cl)c4c(=O)n3C)CC2)[C@@H]1N", "note": "[SHP389, 6-((3S,4S)-4-Amino-3-methyl-2-oxa-8-azaspiro[4.5]decan-8-yl)-3-(3-chloro-2-(cyclopropylamino)pyridin-4-yl)-5-methyl-2,5-dihydro-4H-pyrazolo[3,4-d]pyrimidin-4-one]", "values": [{"measurement": "IC50", "setting": "SHP2 [1]", "result": 36000, "unit": "nM"}]}, {"molecule": "Cc1ncsc1-c1ccc([C@H](C)NC(=O)[C@@H]2C[C@@H](O)CN2C(=O)[C@@H](NC(=O)CCCCCCCCN2CCN(C(=O)CCC(=O)Nc3cccc(Sc4ncc(N5CCC(C)(N)CC5)nc4N)c3Cl)CC2)C(C)(C)C)cc1", "note": "[SHP-D26, (2S,4R)-1-((S)-2-(9-(4-(4-((3-((3-amino-5-(4-amino-4-methylpiperidin-1-yl)pyrazin-2-yl)thio)-2-chlorophenyl)amino)-4-oxobutanoyl)piperazin-1-yl)nonanamido)-3,3-dimethylbutanoyl)-4-hydroxy-N-((S)-1-(4-(4-methylthiazol-5-yl)phenyl)ethyl)pyrrolidine-2-carboxamide]", "values": [{"measurement": "SHP2 recovered after complete withdrawal of compound from culture medium", "setting": "SHP2 [2]", "result": "about 50%"}, {"measurement": "cell viability", "setting": "[3]", "result": "did not compromise cell viability"}, {"measurement": "DC50", "setting": "SHP2 [4]; acute myeloid leukemia MV4, 11 cells, read-out: DC50", "result": 2.6, "unit": "nM"}, {"measurement": "DC50", "setting": "SHP2 [4]; esophageal cancer KYSE520 cells, read-out: DC50", "result": 6, "unit": "nM"}, {"measurement": "DC50", "setting": "SHP2 [4]; range over the cancer cell lines, read-out: SHP2 DC50", "result": "2.6 to 6", "unit": "nM"}]}, {"molecule": "O=c1c2ccccc2n2c(-c3ccccc3O)nnc2n1Cc1ccccc1Cl", "note": "[SHP357]", "values": [{"measurement": "IC50", "setting": "SHP2 [1]", "result": "> 100000", "unit": "nM"}]}, {"molecule": "O=C1/C(=N\\Nc2ccc(S(=O)(=O)O)cc2)C(c2ccc([N+](=O)[O-])cc2)=NN1c1ccc([N+](=O)[O-])cc1", "note": "[GS-493, 4-((2 Z)-2-(1,3-bis (4-Nitrophenyl)-5-oxo-1,5-dihydro-4H-pyrazol-4-yliden)hydrazino) benzenesulfonic acid, (Z)-4-(2-(1,3-bis(4-Nitrophenyl)-5-oxo-1H-pyrazol-4(5H)-ylidene)hydrazinyl)benzenesulfonic acid]", "values": [{"measurement": "IC50", "setting": "SHP2 [1]", "result": 71000, "unit": "nM"}]}]}
